From patent US9708368B2, “Linear peptide antibiotics” (priority 2012, dated 2017)
pIC50: −log10 of the molar value. ≈ marks a conversion by molar mass, not a printed value. Numbered stars: 1 amine (or outer) side, 2 acyl side, 3 side chain; on linkers, the order of the positions; unused ones are H or OH. Square brackets hold non-standard residues; d marks the D form. Peptide text beside a SMILES is read from it. * marks the point of attachment. ξ: configuration not given here. boroAla((+)-pinanediol) = C[C@H](N*)B1O[C@@H]2C[C@@H]3C[C@@H](C3(C)C)[C@]2(C)O1; Biphenylcarbonyl(4'-Bu) = CCCCc1ccc(-c2ccc(C(=O)*)cc2)cc1; X1 = C[C@H](N*)B1OC2C[C@@H]3C[C@@H](C3(C)C)[C@]2(C)O1; Benzoyl(4-(4-Cl-Ph)) = O=C(c1ccc(-c2ccc(Cl)cc2)cc1)*; Benzoyl(4-octyl) = CCCCCCCCc1ccc(C(=O)*)cc1; Dopa = N[C@@H](Cc1ccc(O)c(O)c1)C(=O)O; X21 = CCCCc1ccc(-c2ncc(C(=O)*)s2)cc1; NMeY = CN[C@@H](Cc1ccc(O)cc1)C(=O)O; X10 = CCCCc1ccc(-c2ccc(N*)cc2)cc1; NMeT = CN[C@H](C(=O)O)[C@@H](C)O; NMeE = CN[C@@H](CCC(=O)O)C(=O)O; Gly(cPr) = N[C@H](C(=O)O)C1CC1; Thr(3ξ) = CC(O)[C@H](N)C(=O)O; boroAla = C[C@H](N*)B(O)O; Orn = NCCC[C@H](N)C(=O)O; Dab = NCC[C@H](N)C(=O)O; Dap = NC[C@H](N)C(=O)O; CO = O=C([*:1])[*:2]; βAla = NCCC(=O)O

Legend:
[1] = system: Escherichia coli strain MC4100 IMP-4213, which harbors an LptD mutation; conditions: Method B; E. coli MC4100 IMP-4213 (LptD mutation); 35° C., 22 hours
In short: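 Two-fold serial dilutions of compound inoculated at final OD600 0.0005, incubated static at 35 °C for 22 h, and growth read visually.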

[2] = system: methicillin resistant Staphylococcus aureus (MRSA) strain USA300 (NRS384); conditions: Method B, 35° C., 22 hours
Protocol: In vitro antimicrobial activity of each compound was determined by measuring minimal inhibitor concentrations (MICs) using the broth micro-dilution technique as approved by the Clinical and Laboratory Standards Institute (CLSI). […] Bacterial inocula were prepared by scraping cells into 1 mL of testing media (cation adjusted Mueller Hinton Broth supplemented with 0.002% v/v Tween-80) and diluting to a final OD600 nm of 0.01.
Test compounds were prepared in DMSO at a concentration of 10 mg/ml. […] Bacterial inocula were added to the two fold serial dilutions of test compounds to a final density of OD OD600 nm of 0.0005 and incubated stationarily at 35° C. for 22 hours, after which the plates were examined visually.

S. aureus SPase = S. aureus SPase (Staphylococcus aureus, UniProt P0A070); assay: biochemical
Chain of S. aureus SPase (P0A070 whole entry): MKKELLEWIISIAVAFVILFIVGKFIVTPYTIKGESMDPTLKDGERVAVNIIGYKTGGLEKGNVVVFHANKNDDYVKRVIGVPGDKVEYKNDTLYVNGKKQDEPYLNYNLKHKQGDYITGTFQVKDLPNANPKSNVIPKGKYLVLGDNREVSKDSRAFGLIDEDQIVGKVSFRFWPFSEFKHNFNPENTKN
Protocol: Full length His-tagged S. aureus SPase protein was expressed similarly from E. coli BL21(DE3) containing the plasmid pCDF1-SaSpsB and purified similarly to the E. coli protein with the following exceptions. […] Protein purity was judged to exceed 95% by visual inspection of SDS-PAGE followed by Comassie staining. All protein concentrations were determined by BCA assay.
(§1) Reactions were initiated by the addition of substrate to a final concentration of 20 μM. Reaction progress was monitored by measuring the increase in fluorescence signal (excitation at 314 nm, emission at 416 nm) using a SpectraMax M2 fluorescence microplate reader. […] Three-folder serial dilutions of test compounds, starting at 10 μM, were prepared in enzyme mix solution and incubated at room temperature for 10 minutes. Following this incubation, fluorogenic substrate was added to a final concentration of 20 μM and the increase in fluorescence, corresponding to substrate cleavage, was monitored continuously at room temperature for 1 hour. Initial reaction rates were calculated based on the rate of increase in fluorescence during the reaction. Reaction rates were plotted as a function of compound concentration, and IC50 values are determined nonlinear regression analysis (SoftMaxPro 5.4, Molecular Devices™) of the sigmoidal dose-response curve.

E. coli SPase = E. coli SPase (Escherichia coli, UniProt P00803); assay: Biochemical SPase activity assay (fluorogenic peptide substrate), E. coli enzyme
Chain of E. coli SPase (P00803 whole entry): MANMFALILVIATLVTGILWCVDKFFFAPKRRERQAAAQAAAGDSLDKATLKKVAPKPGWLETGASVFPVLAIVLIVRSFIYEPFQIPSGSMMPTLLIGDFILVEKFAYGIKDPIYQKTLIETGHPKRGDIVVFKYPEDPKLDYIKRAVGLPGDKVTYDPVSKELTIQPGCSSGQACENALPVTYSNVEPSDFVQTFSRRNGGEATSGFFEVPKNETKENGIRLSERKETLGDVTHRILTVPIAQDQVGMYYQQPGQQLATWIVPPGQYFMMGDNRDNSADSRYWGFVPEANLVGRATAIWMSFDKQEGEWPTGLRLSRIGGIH
Protocol: as §1

SMILES | MIC (μg/mL) E. coli [1] | MIC (μg/mL) S. aureus [2] | pIC50 (S. aureus SPase) | pIC50 (E. coli SPase)
CCCCc1ccc(-c2ccc(C(=O)NCCC(=O)N[C@@H](CCCCN)C(=O)N[C@H](C(=O)N[C@@H](C)C(=O)N[C@@H](Cc3ccc(O)cc3)C(=O)N[C@@H](C)B3OC4C[C@@H]5C[C@@H](C5(C)C)[C@]4(C)O3)[C@@H](C)O)cc2)cc1 (stereo partly shown) [Compound 225] ({Biphenylcarbonyl(4'-Bu)-βAla}-KTAY-X1) | 2 µg/mL (≈ 2.01 µM) | 0.57 µg/mL (≈ 0.573 µM) | 8.40 | 8.15
CCCCc1ccc(-c2ccc(CNCCCC(=O)N[C@H](C(=O)N[C@@H](C)C(=O)N[C@@H](CCCCN)C(=O)N[C@@H](C)B3O[C@@H]4C[C@@H]5C[C@@H](C5(C)C)[C@]4(C)O3)[C@@H](C)O)cc2)cc1 [Compound 271] | 11 µg/mL (≈ 13.2 µM) | 0.5 µg/mL (≈ 0.602 µM) | 7.80 | 6.70
CCCCc1ccc(-c2ccc(C(=O)N[C@H](CO)C(=O)N[C@H](C)C(=O)NCC(=O)N(C)[C@@H](Cc3ccc(O)cc3)C(=O)N[C@@H](C)C(=O)N[C@@H](CC(N)=O)C(=O)N[C@@H](C)B3OC4C[C@@H]5C[C@@H](C5(C)C)[C@]4(C)O3)cc2)cc1 (stereo partly shown) [Compound 227] ({Biphenylcarbonyl(4'-Bu)}-[dS][dA]G[NMeY]AN-X1) | 13 µg/mL (≈ 12.5 µM) | 8 µg/mL (≈ 7.71 µM) | 6.07 | 6.26
CCCCc1ccc(-c2ccc(C(=O)N[C@@H](CCCCN)C(=O)N[C@H](C(=O)N[C@H](C(=O)N[C@@H](CCCCN)C(=O)N[C@@H](C)B(O)O)C3CC3)C(C)O)cc2)cc1 (stereo partly shown) [Compound 147] ({Biphenylcarbonyl(4'-Bu)}-K[Thr(3ξ)][Gly(cPr)]K-boroAla) | 0.31 µg/mL (≈ 0.398 µM) | 0.25 µg/mL (≈ 0.321 µM) | 7.01 | 7.85
CCCCc1ccc(-c2ccc(C(=O)N[C@@H](Cc3c[nH]cn3)C(=O)N[C@H](C(=O)N[C@@H](C)C(=O)N[C@@H](CCCCN)C(=O)N[C@@H](C)B3OC4C[C@@H]5C[C@@H](C5(C)C)[C@]4(C)O3)[C@@H](C)O)cc2)cc1 (stereo partly shown) [Compound 143] ({Biphenylcarbonyl(4'-Bu)}-HTAK-X1) | 5.7 µg/mL (≈ 6.35 µM) | 0.35 µg/mL (≈ 0.39 µM) | 6.74 | 6.60
CCCCc1ccc(-c2ncc(C(=O)N[C@@H](CCN)C(=O)N[C@H](C(=O)N[C@@H](C)C(=O)N[C@@H](CCCCN)C(=O)N[C@@H](C)B3OC4C[C@@H]5C[C@@H](C5(C)C)[C@]4(C)O3)[C@@H](C)O)s2)cc1 (stereo partly shown) [Compound 248] (X21-[Dab]TAK-X1) | 0.25 µg/mL (≈ 0.288 µM) | 0.25 µg/mL (≈ 0.288 µM) | 6.77 | 7.96
CCCCc1ccc(-c2ccc(NC(=O)N[C@@H](CCCCN)C(=O)N[C@H](C(=O)N[C@@H](C)C(=O)N[C@@H](CC(N)=O)C(=O)N[C@@H](C)B3OC4C[C@@H]5C[C@@H](C5(C)C)[C@]4(C)O3)[C@@H](C)O)cc2)cc1 (stereo partly shown) [Compound 263] ({X10-CO}-KTAN-X1) | 2 µg/mL (≈ 2.25 µM) | 0.71 µg/mL (≈ 0.799 µM) | 7.14 | 7.06
CCCCc1ccc(-c2ccc(C(=O)N[C@@H](CCCN)C(=O)N[C@H](C(=O)N[C@@H](C)C(=O)N[C@@H](CCCCN)C(=O)N[C@@H](C)B(O)O)C(C)O)cc2)cc1 (stereo partly shown) [Compound 156] ({Biphenylcarbonyl(4'-Bu)}-[Orn][Thr(3ξ)]AK-boroAla) | 0.5 µg/mL (≈ 0.676 µM) | 0.31 µg/mL (≈ 0.419 µM) | 7.01 | 8.26
CCCCc1ccc(-c2ccc(C(=O)NCCC(=O)N[C@@H](CCCCN)C(=O)N3CCC[C@H]3C(=O)N[C@@H](C)C(=O)N[C@@H](CCCCN)C(=O)N[C@@H](C)B(O)O)cc2)cc1 [Compound 221] ({Biphenylcarbonyl(4'-Bu)-βAla}-KPAK-boroAla) | 8 µg/mL (≈ 9.75 µM) | 1 µg/mL (≈ 1.22 µM) | 6.89 | 7.21
CCCCc1ccc(-c2ccc(C(=O)N[C@@H](CCN)C(=O)N[C@H](C(=O)N[C@@H](C)C(=O)N[C@@H](CCCCN)C(=O)N[C@@H](C)B(O)O)[C@@H](C)O)cc2)cc1 [Compound 178] ({Biphenylcarbonyl(4'-Bu)}-[Dab]TAK-boroAla) | 0.25 µg/mL (≈ 0.344 µM) | 0.063 µg/mL (≈ 0.0868 µM) | 7.24 | 8.51
CC(C)C[C@H](NC(=O)[C@H](C)NC(=O)[C@H](CN)NC(=O)[C@H](CN)NC(=O)c1ccc(-c2ccc(Cl)cc2)cc1)C(=O)N[C@@H](C)B1O[C@@H]2C[C@@H]3C[C@@H](C3(C)C)[C@]2(C)O1 [Compound 172] ({Benzoyl(4-(4-Cl-Ph))}-[Dap][Dap]AL-{boroAla((+)-pinanediol)}) | 8 µg/mL (≈ 10.1 µM) | 8 µg/mL (≈ 10.1 µM) | 6.12 | 7.70
CCCCc1ccc(-c2ccc(C(=O)N[C@@H](CCCCN)C(=O)N[C@H](C(=O)N[C@@H](C)C(=O)N[C@@H](CCN)C(=O)N[C@@H](C)B3O[C@@H]4C[C@@H]5C[C@@H](C5(C)C)[C@]4(C)O3)[C@@H](C)O)cc2)cc1 [Compound 140] ({Biphenylcarbonyl(4'-Bu)}-KTA[Dab]-{boroAla((+)-pinanediol)}) | 8 µg/mL (≈ 9.3 µM) | 1 µg/mL (≈ 1.16 µM) | 7.28 | 7.30
CCCCCCCCc1ccc(C(=O)N[C@@H](CCN)C(=O)N[C@H](C(=O)N[C@@H](C)C(=O)N[C@@H](CCCCN)C(=O)N[C@@H](C)B2OC3C[C@@H]4C[C@@H](C4(C)C)[C@]3(C)O2)[C@@H](C)O)cc1 (stereo partly shown) [Compound 232] ({Benzoyl(4-octyl)}-[Dab]TAK-X1) | 0.25 µg/mL (≈ 0.298 µM) | 0.31 µg/mL (≈ 0.369 µM) | 6.85 | 8.30
CCCCc1ccc(-c2ccc(C(=O)N[C@@H]3CN[C@H](C(=O)N[C@H](C(=O)N[C@@H](C)C(=O)N[C@@H](CCCCN)C(=O)N[C@@H](C)B4OC5C[C@@H]6C[C@@H](C6(C)C)[C@]5(C)O4)[C@@H](C)O)C3)cc2)cc1 (stereo partly shown) [Compound 268] | 16 µg/mL (≈ 18.4 µM) | 1 µg/mL (≈ 1.15 µM) | 7.09 | 5.80
CCCCc1ccc(-c2ccc(C(=O)NCCC(=O)N[C@@H](CCCCN)C(=O)N[C@H](C(=O)N[C@@H](C)C(=O)N[C@@H](CC(C)C)C(=O)N[C@@H](C)B3OC4C[C@@H]5C[C@@H](C5(C)C)[C@]4(C)O3)[C@@H](C)O)cc2)cc1 (stereo partly shown) [Compound 198] ({Biphenylcarbonyl(4'-Bu)-βAla}-KTAL-X1) | 5 µg/mL (≈ 5.3 µM) | 0.5 µg/mL (≈ 0.53 µM) | 8.05 | 7.38
CCCCc1ccc(-c2ccc(C(=O)N[C@@H](CCCN)C(=O)N[C@H](C(=O)N[C@@H](C)C(=O)N[C@@H](CCCCN)C(=O)N[C@@H](C)B3OC4C[C@@H]5C[C@@H](C5(C)C)[C@]4(C)O3)[C@@H](C)O)cc2)cc1 (stereo partly shown) [Compound 142] ({Biphenylcarbonyl(4'-Bu)}-[Orn]TAK-X1) | 0.5 µg/mL (≈ 0.572 µM) | 0.22 µg/mL (≈ 0.252 µM) | 7.47 | 7.82
C[C@H](NC(=O)[C@H](CCCCN)NC(=O)[C@H](C)NC(=O)[C@H](CCCCN)NC(=O)[C@H](CN)NC(=O)c1ccc(-c2ccc(Cl)cc2)cc1)B1OC2C[C@@H]3C[C@@H](C3(C)C)[C@]2(C)O1 (stereo partly shown) [Compound 168] ({Benzoyl(4-(4-Cl-Ph))}-[Dap]KAK-X1) | 1 µg/mL (≈ 1.17 µM) | 0.79 µg/mL (≈ 0.928 µM) | 6.60 | 8.27
CCCCc1ccc(-c2ccc(C(=O)NCCC(=O)N[C@@H](CCCCN)C(=O)N(C)[C@H](C(=O)N[C@@H](C)C(=O)N[C@@H](CC(N)=O)C(=O)N[C@@H](C)B3OC4C[C@@H]5C[C@@H](C5(C)C)[C@]4(C)O3)[C@@H](C)O)cc2)cc1 (stereo partly shown) [Compound 192] ({Biphenylcarbonyl(4'-Bu)-βAla}-K[NMeT]AN-X1) | 16 µg/mL (≈ 16.7 µM) | 0.59 µg/mL (≈ 0.615 µM) | 7.92 | 7.57
CCCCc1ccc(Nc2ccc(C(=O)N[C@@H](CCN)C(=O)N[C@H](C(=O)N[C@@H](C)C(=O)N[C@@H](CCCCN)C(=O)N[C@@H](C)B3OC4C[C@@H]5C[C@@H](C5(C)C)[C@]4(C)O3)[C@@H](C)O)cc2)cc1 (stereo partly shown) [Compound 249] | 1 µg/mL (≈ 1.14 µM) | 0.35 µg/mL (≈ 0.4 µM) | 6.80 | 7.77
CCCCc1ccc(-c2ccc(C(=O)N[C@@H](CCN)C(=O)N[C@@H](Cc3ccc(O)c(O)c3)C(=O)N[C@@H](C)C(=O)N[C@@H](CCCCN)C(=O)N[C@@H](C)B3O[C@@H]4C[C@@H]5C[C@@H](C5(C)C)[C@]4(C)O3)cc2)cc1 [Compound 188] ({Biphenylcarbonyl(4'-Bu)}-[Dab][Dopa]AK-{boroAla((+)-pinanediol)}) | 8 µg/mL (≈ 8.53 µM) | 16 µg/mL (≈ 17.1 µM) | 5.54 | 6.92
CCCCc1ccc(-c2ccc(C(=O)N[C@@H](CCCCN)C(=O)N3CCC[C@H]3C(=O)N[C@@H](C)C(=O)N[C@@H](CC(N)=O)C(=O)N[C@@H](C)B(O)O)cc2)cc1 [Compound 158] ({Biphenylcarbonyl(4'-Bu)}-KPAN-boroAla) | 5 µg/mL (≈ 6.8 µM) | 5.7 µg/mL (≈ 7.75 µM) | 6.40 | 7.48
CCCCc1ccc(-c2ccc(C(=O)N[C@H](CO)C(=O)N[C@H](C)C(=O)NCC(=O)N(C)[C@@H](CCC(=O)O)C(=O)N[C@@H](C)C(=O)N[C@@H](CC(N)=O)C(=O)N[C@@H](C)B3OC4C[C@@H]5C[C@@H](C5(C)C)[C@]4(C)O3)cc2)cc1 (stereo partly shown) [Compound 229] ({Biphenylcarbonyl(4'-Bu)}-[dS][dA]G[NMeE]AN-X1) | 32 µg/mL (≈ 31.9 µM) | 64 µg/mL (≈ 63.8 µM) | 6.66 | 6.54
